Experiments:
Xaa-Pro dipeptidase [1] = molecular target: T1, Xaa-Pro dipeptidase (Homo sapiens, UniProt P12955); test: Competitive inhibition of prolidase (unknown origin) in erythrocytes assessed as inhibition constant
T1 sequence (P12955 whole entry): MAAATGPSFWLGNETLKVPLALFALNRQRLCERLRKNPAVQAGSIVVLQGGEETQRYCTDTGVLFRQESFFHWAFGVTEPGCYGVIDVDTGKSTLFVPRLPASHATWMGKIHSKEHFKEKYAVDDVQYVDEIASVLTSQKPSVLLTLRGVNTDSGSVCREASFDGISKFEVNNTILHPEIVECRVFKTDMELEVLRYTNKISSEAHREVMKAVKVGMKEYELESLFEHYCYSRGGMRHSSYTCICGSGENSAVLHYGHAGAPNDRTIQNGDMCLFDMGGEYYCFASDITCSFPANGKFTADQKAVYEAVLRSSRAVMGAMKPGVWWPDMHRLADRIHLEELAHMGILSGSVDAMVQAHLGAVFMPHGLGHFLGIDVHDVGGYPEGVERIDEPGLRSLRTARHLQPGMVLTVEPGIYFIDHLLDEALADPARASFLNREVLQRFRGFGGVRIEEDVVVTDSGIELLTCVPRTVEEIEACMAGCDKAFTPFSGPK

MDA-MB-231 = test: Cytotoxicity against human MDA-MB-231 cells assessed as reduction in cell viability measured for 72 hrs by MTT assay; settings: MDA-MB-231, 72 h
MCF7 = test: Cytotoxicity against human MCF7 cells assessed as reduction in cell viability measured for 72 hrs by MTT assay; settings: MCF7, 72 h
SK-MEL-5 = test: cells; settings: Homo sapiens, SK-MEL-5, 48 h
Description: Growth inhibition of human SK-MEL-5 cells after 48 hrs by sulforhodamine B assay

Xaa-Pro dipeptidase [2] = molecular target: T1, Xaa-Pro dipeptidase; test: Inhibition of prolidase (unknown origin)

Question: `NC(=O)Nc1ccc(O)cc1` was tested. Which Ki (Xaa-Pro dipeptidase [1]) did it give?
Answer: Its Ki is 9.73 µM.

Question: For `O=NN(CCCl)C(=O)N1CCC[C@H]1C(=O)O`, which IC50 (MDA-MB-231) is on record?
Answer: Its IC50 is 88 µM.

Question: What about the IC50 (MCF7) of the same molecule?
Answer: The IC50 was 102 µM.

Question: Which GI50 (SK-MEL-5) does the source give for `N[C@@H](Cc1ccc(N(CCCl)CCCl)cc1)C(=O)O` here?
Answer: Its GI50 is 74.8 µM.

Question: `COc1cccc2c1C(=O)c1c(O)c3c(c(O)c1C2=O)C[C@@](O)(C(C)=O)C[C@@H]3O[C@H]1C[C@H](N)[C@H](O)[C@H](C)O1` [DAUNORUBICIN] was tested. Which IC50 (Xaa-Pro dipeptidase [2]) did it give?
Answer: Its IC50 is 0.3 µM.

Question: With `COc1cccc2c1C(=O)c1c(O)c3c(c(O)c1C2=O)C[C@@](O)(C(=O)CO)C[C@@H]3O[C@H]1C[C@H](N)[C@H](O)[C@H](C)O1` [DOXORUBICIN] as the molecule, how does the IC50 (Xaa-Pro dipeptidase [2]) read?
Answer: The IC50 was 10 µM.

Source: ChEMBL document CHEMBL5576103, “Targeting prolidase. A survey of the literature data to depict a structure-activity relationship frame and to address future studies for drug development” (Bioorg Med Chem, 2024)
